Experimental data: US20200095192A1, “BIODEGRADABLE DIETHANOLAMINE DERIVATIVE CHELATING AGENT AND PREPARATION PROCESS THEREOF” (PTT Global Chemical Public Company Limited, priority 2017, published 2020)
Read-outs that look alike come from different tables or passages of the source.

How the values were obtained:
[1] = stability constant by complex titration; assay type: physicochemical; details: synthesized chelating agent
Excerpt: The analysis of stability constant between the synthesized chelating agent and metal ions can be performed by complex titration wherein the stability constant of the synthesized chelating agent and metal ions comparing to the previous disclosed degradable chelating agent can be performed according to table 7.

[2] = calcium chelation value of crude ligand; assay type: physicochemical; parameters: unit not given here
Description: (§1) The diethanolamine derivatives and maleic anhydride can be synthesized by the reaction according to equation (I). The diethanolamine precursor, maleic anhydride, and selected catalyst were added into about 15-20 mL of dichloromethane solvent, wherein the amounts of each compounds were shown in table 1. Then, the obtained mixture was refluxed at the temperature of 50° C. until the reaction was completed. The amount of precursors being used was monitored. The solvent was removed from the obtained product. The obtained product was dissolved in 50 mL of distilled water and washed with dichloromethane for at least 3 times (30 mL each). After being washed, the obtained product was dried under vacuum and analyzed for its property using ^1H NMR spectroscopy and liquid chromatography mass spectrometry (LC/MS) technique.
as §1, with “succinic” for “maleic”, “(II).” for “(I).”, “3.” for “1.”, “in” for “in 50 mL of”, “water (50 mL)” for “water”
as §1, with “and succinic” for “and maleic”, “equation (III).” for “equation (I).”, “precursor, phthalic” for “precursor, maleic”, “table 5.” for “table 1.”, “in” for “in 50 mL of”, “water (50 mL)” for “water”

[3] = cadmium (Cd^2+); previous disclosed chelating agent; cited from earlier work
[4] = copper (Cu2+); previous disclosed chelating agent; cited from earlier work
[5] = iron (Fe^3+); previous disclosed chelating agent; cited from earlier work
[6] = tin (Pb^2+); previous disclosed chelating agent; cited from earlier work
[7] = zinc (Zn^2+); previous disclosed chelating agent; cited from earlier work
[8] = nickel (Ni^2+); previous disclosed chelating agent; cited from earlier work
[9] = magnesium (Mg^2+); previous disclosed chelating agent; cited from earlier work
[10] = calcium (Ca^2+); previous disclosed chelating agent; cited from earlier work
[11] = cobolt (Co^2+); previous disclosed chelating agent; cited from earlier work
[12] = barium (Ba^2+); previous disclosed chelating agent; cited from earlier work
[13] = aluminium (Al^3+); previous disclosed chelating agent; cited from earlier work
[14] = iron (Fe^2+); previous disclosed chelating agent; cited from earlier work
[15] = mercury (Hg^2+); previous disclosed chelating agent; cited from earlier work
[16] = manganese (Mn^2+); previous disclosed chelating agent; cited from earlier work
[17] = crude of ligand 3-1 to ligand 3-7 without purification
[18] = crude of ligand 1-1 to ligand 1-11 without purification
[19] = crude of ligand 2-1 to ligand 2-9 without purification

`O=C(O)/C=C/C(=O)OCCN(CCOC(=O)/C=C/C(=O)O)C(=O)/C=C/C(=O)O` [ligand 1] gave a stability constant ([1]; aluminium (Al^3+)) of 10.7, a stability constant ([1]; barium (Ba^2+)) of 7.8 and a stability constant ([1]; cadmium (Cd^2+)) of 8.5. For the same compound, the stability constant ([1]; calcium (Ca^2+)) was 9.3, the stability constant ([1]; cobolt (Co^2+)) was 10.4 and the stability constant ([1]; copper (Cu2+)) was 12.8. The stability constant ([1]; iron (Fe^2+)) was 14.8, the stability constant ([1]; iron (Fe^3+)) was 9.5 and the stability constant ([1]; magnesium (Mg^2+)) was 8.3. The stability constant ([1]; manganese (Mn^2+)) was 10.4, the stability constant ([1]; mercury (Hg^2+)) was 7.8 and the stability constant ([1]; nickel (Ni^2+)) was 5.0. For the same compound, the stability constant ([1]; strontium (Sr^2+)) was 7.7, the stability constant ([1]; tin (Pb^2+)) was 11.4 and the stability constant ([1]; zinc (Zn^2+)) was 9.0.
With `O=C(O)c1ccccc1C(=O)OCCN(CCOC(=O)c1ccccc1C(=O)O)C(=O)c1ccccc1C(=O)O` [ligand 3-7] the calcium chelation value [2, 17] was 76.
Work on `O=C(O)c1ccccc1C(=O)OCCN(CCOC(=O)c1ccccc1C(=O)O)C(=O)c1ccccc1C(=O)O` [ligand 3-3] yielded a calcium chelation value [2, 17] of 81.
In the case of `O=C(O)/C=C/C(=O)OCCN(CCOC(=O)/C=C/C(=O)O)C(=O)/C=C/C(=O)O` [ligand 1-4], the calcium chelation value [2, 18] is reported as 9.
With `O=C(O)c1ccccc1C(=O)OCCN(CCOC(=O)c1ccccc1C(=O)O)C(=O)c1ccccc1C(=O)O` [ligand 3-1] the calcium chelation value [2, 17] was 25.
For `O=C(O)C[C@H](NCCN[C@@H](CC(=O)O)C(=O)O)C(=O)O` [EDDS, ethylene diamine-N,N-disuccinic acid], the stability constant [3] is listed as 16.4, the stability constant [4] is listed as 18.4 and the stability constant [5] is listed as 22.0. For the same compound, the stability constant [6] was 12.7, the stability constant [7] was 13.4 and the stability constant [8] was 16.7. The stability constant [9] was 6.0, the stability constant [10] was 4.6 and the stability constant [11] was 13.6. For the same compound, the stability constant [12] was 3.0.
For `O=C(O)CCC(=O)OCCN(CCOC(=O)CCC(=O)O)C(=O)CCC(=O)O` [ligand 2-9], the calcium chelation value [2, 19] was 85.
In the case of `O=C(O)CC(NC(CC(=O)O)C(=O)O)C(=O)O` (stereo not shown) [IDS, iminodisuccinic acid], the stability constant [3] is given as 8.4, the stability constant [4] is given as 13.1 and the stability constant [5] is given as 15.2. The stability constant [6] was 11.0, the stability constant [13] was 14.1 and the stability constant [14] was 8.2. For the same compound, the stability constant [7] was 10.8, the stability constant [8] was 12.2 and the stability constant [15] was 14.9. For the same compound, the stability constant [9] was 6.1, the stability constant [10] was 5.2 and the stability constant [11] was 10.5. For the same compound, the stability constant [16] was 7.7 and the stability constant [12] was 2.1.
For `O=C(O)CCC(=O)OCCN(CCOC(=O)CCC(=O)O)C(=O)CCC(=O)O` [ligand 2-1], the calcium chelation value [2, 19] was 5.
Compound `O=C(O)/C=C/C(=O)OCCN(CCOC(=O)/C=C/C(=O)O)C(=O)/C=C/C(=O)O` [ligand 1-1] has a calcium chelation value [2, 18] of 4.
`O=C(O)/C=C/C(=O)OCCN(CCOC(=O)/C=C/C(=O)O)C(=O)/C=C/C(=O)O` [ligand 1-2] showed a calcium chelation value [2, 18] of 15.
`O=C(O)c1ccccc1C(=O)OCCN(CCOC(=O)c1ccccc1C(=O)O)C(=O)c1ccccc1C(=O)O` [ligand 3-5] gave a calcium chelation value [2, 17] of 75.
Compound `O=C(O)c1ccccc1C(=O)OCCN(CCOC(=O)c1ccccc1C(=O)O)C(=O)c1ccccc1C(=O)O` [ligand 3-4] has a calcium chelation value [2, 17] of 70.
`O=C(O)CCC(=O)OCCN(CCOC(=O)CCC(=O)O)C(=O)CCC(=O)O` [ligand 2-8] showed a calcium chelation value [2, 19] of 83.
With `O=C(O)/C=C/C(=O)OCCN(CCOC(=O)/C=C/C(=O)O)C(=O)/C=C/C(=O)O` [ligand 1-7] the calcium chelation value [2, 18] was 46.
With `O=C(O)CCC(=O)OCCN(CCOC(=O)CCC(=O)O)C(=O)CCC(=O)O` [ligand 2-3] the calcium chelation value [2, 19] was 55.
Work on `O=C(O)CCC(=O)OCCN(CCOC(=O)CCC(=O)O)C(=O)CCC(=O)O` [ligand 2-4] yielded a calcium chelation value [2, 19] of 21.
For `O=C(O)/C=C/C(=O)OCCN(CCOC(=O)/C=C/C(=O)O)C(=O)/C=C/C(=O)O` [ligand 1-11], the calcium chelation value [2, 18] was 60.
With `O=C(O)CCC(=O)OCCN(CCOC(=O)CCC(=O)O)C(=O)CCC(=O)O` [ligand 2-5] the calcium chelation value [2, 19] was 45.
`O=C(O)CCC(=O)OCCN(CCOC(=O)CCC(=O)O)C(=O)CCC(=O)O` [ligand 2-7] showed a calcium chelation value [2, 19] of 42.
With `O=C(O)/C=C/C(=O)OCCN(CCOC(=O)/C=C/C(=O)O)C(=O)/C=C/C(=O)O` [ligand 1-3] the calcium chelation value [2, 18] was 13.
For `O=C(O)/C=C/C(=O)OCCN(CCOC(=O)/C=C/C(=O)O)C(=O)/C=C/C(=O)O` [ligand 1-5], the calcium chelation value [2, 18] was 3.
In the case of `O=C(O)/C=C/C(=O)OCCN(CCOC(=O)/C=C/C(=O)O)C(=O)/C=C/C(=O)O` [ligand 1-10], the calcium chelation value [2, 18] is reported as 62.
Compound `O=C(O)CCC(=O)OCCN(CCOC(=O)CCC(=O)O)C(=O)CCC(=O)O` [ligand 2-6] has a calcium chelation value [2, 19] of 87.
For `O=C(O)CC(OCCN(CCOC(CC(=O)O)C(=O)O)[C@@H](CC(=O)O)C(=O)O)C(=O)O` (stereo partly shown) [BCA6], the stability constant [3] is listed as 11.09, the stability constant [4] is listed as 13.08 and the stability constant [5] is listed as 17.3. The stability constant [6] was 10.82, the stability constant [13] was 6.14 and the stability constant [7] was 11.34. The stability constant [15] was 14.85, the stability constant [9] was 5.98 and the stability constant [10] was 7.71. The stability constant [16] was 9.28 and the stability constant [12] was 6.1.
With `O=C(O)/C=C/C(=O)OCCN(CCOC(=O)/C=C/C(=O)O)C(=O)/C=C/C(=O)O` [ligand 1-9] the calcium chelation value [2, 18] was 83.
Work on `O=C(O)/C=C/C(=O)OCCN(CCOC(=O)/C=C/C(=O)O)C(=O)/C=C/C(=O)O` [ligand 1-8] yielded a calcium chelation value [2, 18] of 58.
In the case of `CC(C(=O)O)N(CC(=O)O)CC(=O)O` (stereo not shown) [MGDA, methylglycinediacetic acid], the stability constant [4] is listed as 13.9, the stability constant [5] is listed as 16.5 and the stability constant [14] is listed as 8.1. For the same compound, the stability constant [7] was 10.9, the stability constant [8] was 12.0 and the stability constant [9] was 5.8. The stability constant [10] was 7.0, the stability constant [16] was 8.4 and the stability constant [12] was 4.9.
With `O=C(O)CCC(=O)OCCN(CCOC(=O)CCC(=O)O)C(=O)CCC(=O)O` [ligand 2-2] the calcium chelation value [2, 19] was 8.
For `O=C(O)c1ccccc1C(=O)OCCN(CCOC(=O)c1ccccc1C(=O)O)C(=O)c1ccccc1C(=O)O` [ligand 3-6], the calcium chelation value [2, 17] was 88.
With `O=C(O)CCC(=O)OCCN(CCOC(=O)CCC(=O)O)C(=O)CCC(=O)O` [ligand 2] the stability constant ([1]; aluminium (Al^3+)) was 11.4, the stability constant ([1]; barium (Ba^2+)) was 6.2 and the stability constant ([1]; cadmium (Cd^2+)) was 7.2. It also gave a stability constant ([1]; calcium (Ca^2+)) of 10.1, a stability constant ([1]; cobolt (Co^2+)) of 7.5 and a stability constant ([1]; copper (Cu2+)) of 10.5. For the same compound, the stability constant ([1]; iron (Fe^2+)) was 12.3, the stability constant ([1]; iron (Fe^3+)) was 7.5 and the stability constant ([1]; magnesium (Mg^2+)) was 8.1. For the same compound, the stability constant ([1]; manganese (Mn^2+)) was 9.1, the stability constant ([1]; mercury (Hg^2+)) was 9.5 and the stability constant ([1]; nickel (Ni^2+)) was 5.4. It also gave a stability constant ([1]; strontium (Sr^2+)) of 5.3, a stability constant ([1]; tin (Pb^2+)) of 9.9 and a stability constant ([1]; zinc (Zn^2+)) of 7.9.
Work on `O=C(O)c1ccccc1C(=O)OCCN(CCOC(=O)c1ccccc1C(=O)O)C(=O)c1ccccc1C(=O)O` [ligand 3-2] yielded a calcium chelation value [2, 17] of 15.
